Key:
[1] = system: Aphis craccivora; assay: Insecticidal activity against Aphis craccivora (cowpea aphid) infected soybean tender shoots after 24 hr; type: functional
[2] = system: Aphis craccivora; assay: Insecticidal activity against Aphis craccivora (cowpea aphid) infected soybean tender shoots assessed as mortality at 500 mg/L after 24 hr; type: functional

Structure (SMILES)	LC50 [1] [µM]	mortality at 500 µg/mL [2] [%]
Cn1c(NCc2ccc(Cl)nc2)c([N+](=O)[O-])sc1=N	118	100
N#CS/C(=C1\NCCN1Cc1ccc(C(F)(F)F)nc1)[N+](=O)[O-]	18.9	100
CCN(Cc1ccc(Cl)nc1)c1c([N+](=O)[O-])sc(=N)n1C	–	57.6
N#CS/C(C#N)=C1\NCCN1Cc1ccc(Cl)nc1	–	34.6
N#CS/C(=C1\Nc2ccccc2N1Cc1ccc(Cl)nc1)[N+](=O)[O-]	–	87.8
N=c1sc([N+](=O)[O-])c2n1CCN2Cc1ccccc1	–	16.2
N=c1sc([N+](=O)[O-])c2n1CCCN2Cc1ccc(Cl)nc1	22	100
CCn1c(NCc2ccc(Cl)nc2)c([N+](=O)[O-])sc1=N	–	50.8
N#CS/C(=C1\NCCCN1Cc1ccc(Cl)nc1)[N+](=O)[O-]	24.9	100
N#CS/C(=C1\NCCN1Cc1cnc(Cl)s1)[N+](=O)[O-]	9.74	100
N#CS/C(=C1\NCCN1Cc1ccccc1)[N+](=O)[O-]	–	24
N#CS/C(=C1\NCCN1Cc1ccc(Cl)nc1)[N+](=O)[O-]	15.7	100
N=c1sc([N+](=O)[O-])c2n1CCN2Cc1ccc(C(F)(F)F)nc1	24.5	100
N=c1sc([N+](=O)[O-])c2n1CCN2Cc1cnc(Cl)s1	17.8	100
N#Cc1sc(=N)n2c1N(Cc1ccc(Cl)nc1)CC2	–	32.4
N#CS/C(C#N)=C1\NCCN1Cc1cnc(Cl)s1	–	0
N=c1sc([N+](=O)[O-])c2n1CCN2Cc1ccc(Cl)nc1	26.8	100
